Common to all, as to format: cell-based
The target in one assay is T1, STAT3 (Homo sapiens, UniProt P40763).
T1 construct: plasmid pSTAT3-TA-luc), which contains a stably operating STAT3 promoter; endogenous in cells
The experiment in a line: STAT3 reporter gene assay (luciferase), LNCaP stable cell line (pSTAT3-TA-luc), IL-6 stimulation. As to the method: 1-1) Experiment on the Inhibition of STAT3 Activity
A human prostate cancer cell line (LNCaP stable cell line; plasmid pSTAT3-TA-luc), which contains a stably operating STAT3 promoter, was cultured in RPMI1640 medium (Cat No. 11875, Life Technologies) containing 10% fetal bovine serum (FBS) (Cat No. SH30396, Thermo Scientific) and 150 μg/mL G-418 solution (Cat No. 04 727 894 001, Roche). The reporter gene assay using LNCaP stable cell line was performed in RPMI1640 medium containing 3% DCC-FBS without G-418 solution. LNCaP stable cells were plated in two (2) white 96-well plates with 30,000 cells/50 μL in each well. The cells were cultured at 37° C., under 5% CO2 for 24 hours, and then treated with the compounds listed in Examples which were diluted in various concentrations. Subsequently, IL-6 was added to each well with a final concentration of 10 ng/mL. Upon completion of the treatment with the compounds and IL-6, the cells were cultured at 37° C., under 5% CO2 for from 24 to 48 hours. The plates were observed under microscope and drug precipitation and particular findings were investigated and recorded.
The luciferase assay and the cell viability assay were performed respectively with one of the two plates. For the luciferase assay, the liquid media in the 96-well plate was removed, and then, 20 μL of passive cell lysis buffer was added to each well. After shaking the plate for 30 minutes, luciferase activities of each well were measured in a PHERAstar™ microplate reader (BMG LABTECH) using a luciferase assay system (Cat No. E1501, Promega). For the cell viability assay, the 96-well plate was placed at room temperature for 30 minutes, added with 20 μL/well of CellTiter-Glo solution (Cat No. G7573, Promega), and shaken for 10 minutes in order to measure cytotoxicity caused by the compounds listed in Examples with a PHERAstar™ microplate reader (BMG LABTECH). Wells without 0.1% DMSO and stimulation were used as a negative control and wells with 0.1% DMSO and stimulation were used as a positive control.

For the next assay, the system named is LNCaP. The experiment in a line: Cell growth inhibition assay, prostate cancer cell line LNCaP (medium with 10 ng/mL IL-6). Particulars: Homo sapiens, medium supplemented with 10 ng/mL of IL-6, 10,000 cells/well. As to the method:
(§1) The inhibitory effects of the compounds of the present invention against the growth of cancer cells were evaluated as shown below. The cancer cell lines including stomach cancer cell line (AGS), breast cancer cell lines (MDA-MB-231, MDA-MB-468, and BT-549), prostate cancer cell lines (LNCaP and DU-145), colon cancer cell line (HCT116), ovarian cancer cell line (SW626), liver cancer cell line (Hep3B), kidney cancer cell line (ACHN), lung cancer cell line (NCI-H23) and blood cancer cell lines (HEL92.1.7 and U266) were cultured under the protocol provided by each supplier. A medium supplemented with 10 ng/mL of IL-6 was used for LNCaP, a prostate cancer cell line, when treated with a drug. Each type of cells to be used in experiments were sub-cultured in a 96-well plate by counting the exact number of cells using Tali™ Image-based Cytometer (Life Technologies). In a 96-well plate, AGS, HCT116, and DU-145 were employed with 3,000 cells/well; NCI-H23, SW626, Hep3B, ACHN, BT-549, MDA-MB-231, HEL92.1.7, and U266 were employed with 5,000 cells/well; and LNCaP and MDA-MB-468 were employed with 10,000 cells/well. The cells were treated with the compounds listed in Examples which were diluted in various concentrations. Upon completion of the compounds treatment, AGS, HCT116, SW626, DU145, NCI-H23, Hep3B, ACHN, BT-549, LNCaP, HEL92.1.7, and U266 cells were cultured at 37° C. under 5% CO2 for from 72 to 96 hours, and MDA-MB-231 and MDA-MB-468 cells were cultured at 37° C. in air for from 72 to 96 hours. Subsequently, the cells were observed under microscope and drug precipitation and particular findings were investigated and recorded. And then, the 96-well plate was placed at room temperature for 30 minutes, added with 20 μL/well of CellTiter-Glo solution (Cat No. G7573, Promega) and shaken for 10 minutes, followed by being subjected to the measurement using PHERAstar™ microplate reader (BMG LABTECH) according to the supplier's general luminometer protocol. Wells where only culture liquid added without cell plating were used as a negative control, whereas wells where culture liquid containing 0.1% DMSO instead of the compounds listed in Examples were used as a positive control.

In a further assay the test system is DU-145. The experiment in a line: Cell growth inhibition assay, prostate cancer cell line DU-145. Particulars: Homo sapiens, DU-145 prostate cancer cell line. As to the method: as §1

19 compounds from US10562912B2 (C&C Research Laboratories, priority 2013, dated 2020) can be followed below.

T1 sequence (P40763 whole entry): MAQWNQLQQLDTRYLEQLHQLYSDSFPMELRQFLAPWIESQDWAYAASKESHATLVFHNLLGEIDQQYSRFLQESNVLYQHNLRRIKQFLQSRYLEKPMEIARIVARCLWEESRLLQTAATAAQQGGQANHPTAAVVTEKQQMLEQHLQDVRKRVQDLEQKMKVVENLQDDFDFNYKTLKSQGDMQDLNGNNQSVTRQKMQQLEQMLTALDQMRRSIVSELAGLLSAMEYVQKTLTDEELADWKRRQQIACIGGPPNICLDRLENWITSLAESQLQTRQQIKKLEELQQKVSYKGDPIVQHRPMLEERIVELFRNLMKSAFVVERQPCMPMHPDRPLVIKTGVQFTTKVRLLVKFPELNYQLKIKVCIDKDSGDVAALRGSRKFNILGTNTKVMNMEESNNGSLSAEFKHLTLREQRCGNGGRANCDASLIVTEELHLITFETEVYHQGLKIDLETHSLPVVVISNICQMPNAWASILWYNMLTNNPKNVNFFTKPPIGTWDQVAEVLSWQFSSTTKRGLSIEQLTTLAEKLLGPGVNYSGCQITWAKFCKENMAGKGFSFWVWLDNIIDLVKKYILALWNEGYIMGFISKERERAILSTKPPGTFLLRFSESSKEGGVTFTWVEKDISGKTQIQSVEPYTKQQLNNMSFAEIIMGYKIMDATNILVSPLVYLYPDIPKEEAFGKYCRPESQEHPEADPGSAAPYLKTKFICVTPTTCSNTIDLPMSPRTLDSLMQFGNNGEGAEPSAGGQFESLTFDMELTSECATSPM

What is called IC50 is the concentration that inhibits the measured activity by half. Read a high IC50 as lower potency. On to `CCOc1cc(OC(F)(F)F)cc(C(C)(C)c2cc(Br)cc(NC(=O)c3cc4nc(NS(C)(=O)=O)ccc4s3)c2)c1` [Example 60, N-(3-bromo-5-(2-(3-ethoxy-5-(trifluoromethoxy)phenyl)propan-2-yl)phenyl)-5-(methylsulfonamido)thieno[3,2-b]pyridine-2-carboxamide], for which the IC50 against STAT3 stood at 0.063 µM; in the assay on LNCaP it was 0.37 µM; in the assay on DU-145, 0.17 µM.
Consider `CC(C)(c1cc(Cl)cc(NC(=O)c2cc3cc(NS(C)(=O)=O)ccc3s2)c1)c1cc(OC(F)(F)F)ccc1F` [Example 62, N-(3-chloro-5-(2-(2-fluoro-5-(trifluoromethoxy)phenyl)propan-2-yl)phenyl)-5-(methylsulfonamido)benzo[b]thiophene-2-carboxamide], for which the IC50 against STAT3 was 0.011 µM; in the assay on LNCaP, 0.075 µM; in the assay with DU-145, 0.016 µM.
For `COc1cc(OC(F)(F)F)cc(C(C)(C)c2cc(F)cc(NC(=O)c3cc4cc(NS(C)(=O)=O)ccc4s3)c2)c1` [Example 63, N-(3-fluoro-5-(2-(3-methoxy-5-(trifluoromethoxy)phenyl)propan-2-yl)phenyl)-5-(methylsulfonamido)benzo[b]thiophene-2-carboxamide], in that order: 0.034 µM, 0.037 µM and 0.01 µM.
On to `CC(C)(c1cccc(F)c1)c1cc(Cl)cc(NC(=O)c2cc3cc(NS(C)(=O)=O)ccc3s2)c1` [Example 65, N-(3-chloro-5-(2-(3-fluorophenyl)propan-2-yl)phenyl)-5-(methylsulfonamido)benzo[b]thiophene-2-carboxamide], for which the IC50 against STAT3 amounted to 0.064 µM; in the assay with DU-145, 0.005 µM.
In the case of `CC(C)Oc1cc(OC(F)(F)F)cc(C(C)(C)c2cc(Cl)cc(NC(=O)c3cn4cc(NS(C)(=O)=O)ccc4n3)c2)c1` [Example 74, N-(3-chloro-5-(2-(3-isopropoxy-5-(trifluoromethoxy)phenyl)propan-2-yl)phenyl)-6-(methylsulfonamido)imidazo[1,2-a]pyridine-2-carboxamide], the IC50 is 2.7 µM on STAT3, 6.6 µM in the assay on LNCaP and 2.6 µM in the assay with DU-145.
The matching figures for `CC(C)(c1cc(Cl)cc(NC(=O)c2cc3cc(NS(C)(=O)=O)ccc3s2)c1)c1cc(OC2COC2)cc(OC(F)(F)F)c1` [Example 76, N-(3-chloro-5-(2-(3-(oxetan-3-yloxy)-5-(trifluoromethoxy)phenyl)propan-2-yl)phenyl)-5-(methylsulfonamido)benzo[b]thiophene-2-carboxamide]: 3 µM, 0.23 µM and 0.34 µM.
For the compound `CC(C)Oc1cc(OC(F)(F)F)cc(C(C)(C)c2cc(Cl)cc(NC(=O)c3cc4c(s3)CCN(S(C)(=O)=O)C4)c2)c1` [Example 97, N-(3-chloro-5-(2-(3-isopropoxy-5-(trifluoromethoxy)phenyl)propan-2-yl)phenyl)-5-(methylsulfonyl)-4,5,6,7-tetrahydrothieno[3,2-c]pyridine-2-carboxamide], the IC50 came to 2.1 µM against STAT3 and 0.17 µM in the assay on DU-145.
For `CC(C)Oc1cc(OC(F)(F)F)cc(C(C)(C)c2cc(Cl)cc(NC(=O)c3cc(NS(C)(=O)=O)cs3)c2)c1` [Example 102, N-(3-chloro-5-(2-(3-isopropoxy-5-(trifluoromethoxy)phenyl)propan-2-yl)phenyl)-4-(methylsulfonamido)thiophene-2-carboxamide], in that order: 4.6 µM and > 1.1 µM.
Turning to `CC(C)Oc1cc(OC(F)(F)F)cc(C(C)(C)c2cc(Br)cc(NC(=O)c3cc4cc(OP(=O)(O)O)ccc4s3)c2)c1` [Example 192, 2-((3-bromo-5-(2-(3-isopropoxy-5-(trifluoromethoxy)phenyl)propan-2-yl)phenyl)carbamoyl)benzo[b]thiophen-5-yl dihydrogen phosphate], inhibition at STAT3 was half-maximal at 0.75 µM (IC50).
With `CS(=O)(=O)Nc1ccc2[nH]c(C(=O)Nc3cccc(-c4ccccc4C(F)(F)F)c3)cc2c1` [Example 259, 5-(methylsulfonamido)-N-(2′-(trifluoromethyl)-[1,1′-biphenyl]-3-yl)-1H-indole-2-carboxamide], the half-maximal inhibitory concentration (IC50) against STAT3 came to 1.1 µM; with LNCaP it was 2 µM.
`CS(=O)(=O)Nc1cc2cc(C(=O)Nc3cc(Cl)nc(Oc4ccc(Cl)cc4)c3)sc2cc1Cl` [Example 490, 6-chloro-N-(2-chloro-6-(4-chlorophenoxy)pyridin-4-yl)-5-(methylsulfonamido)benzo[b]thiophene-2-carboxamide] had an IC50 against STAT3 of 0.016 µM. In other words, the double-digit nanomolar range.
On the same count and under the same terms, as for `CS(=O)(=O)Nc1ccc2sc(C(=O)Nc3cc(Cl)nc(Oc4ccc(Cl)nc4)c3)cc2c1` [Example 491, N-(2-chloro-6-((6-chloropyridin-3-yl)oxy)pyridin-4-yl)-5-(methylsulfonamido)benzo[b]thiophene-2-carboxamide], the figure is 0.13 µM; as for `CS(=O)(=O)Nc1cc2cc(C(=O)Nc3cc(Cl)nc(Oc4ccc(Cl)nc4)c3)sc2cc1Cl` [Example 492], 0.008 µM.
The same measure, in the same setting: as for `CS(=O)(=O)Nc1ccc2sc(C(=O)Nc3cc(Cl)nc(Oc4ccc(C(F)(F)F)nc4)c3)cc2c1` [Example 493, N-(2-chloro-6-((6-(trifluoromethyl)pyridin-3-yl)oxy)pyridin-4-yl)-5-(methylsulfonamido)benzo[b]thiophene-2-carboxamide], the figure is 0.14 µM.
Still for that read-out and setting: as for `CS(=O)(=O)Nc1cc2cc(C(=O)Nc3cc(Cl)nc(Oc4ccc(C(F)(F)F)nc4)c3)sc2cc1Cl` [Example 494, 6-chloro-N-(2-chloro-6-((6-(trifluoromethyl)pyridin-3-yl)oxy)pyridin-4-yl)-5-(methylsulfonamido)benzo[b]thiophene-2-carboxamide], the figure is 0.018 µM; as for `CS(=O)(=O)Nc1ccc2sc(C(=O)Nc3cc(Cl)nc(Oc4ccc(C(F)(F)F)cc4)c3)cc2c1` [Example 495, N-(2-chloro-6-(4-(trifluoromethyl)phenoxy)pyridin-4-yl)-5-(methylsulfonamido)benzo[b]thiophene-2-carboxamide], 0.08 µM; as for `CS(=O)(=O)Nc1cc2cc(C(=O)Nc3cc(Cl)nc(Oc4ccc(C(F)(F)F)cc4)c3)sc2cc1Cl` [Example 496, 6-chloro-N-(2-chloro-6-(4-(trifluoromethyl)phenoxy)pyridin-4-yl)-5-(methylsulfonamido)benzo[b]thiophene-2-carboxamide], 0.009 µM.
On to `COc1cc2sc(C(=O)Nc3cc(Cl)cc(C(C)(C)c4ccc(Cl)cc4)c3)cc2cc1NS(C)(=O)=O` [Example 497, N-(3-chloro-5-(2-(4-chlorophenyl)propan-2-yl)phenyl)-6-methoxy-5-(methylsulfonamido)benzo[b]thiophene-2-carboxamide], for which the IC50 against STAT3 is 0.005 µM. Against the preceding compound, the IC50 is about 1.8-fold lower.
Still for that read-out and setting: as for `COc1cc2sc(C(=O)Nc3cc(Cl)cc(Oc4ccc(Cl)cc4)c3)cc2cc1NS(C)(=O)=O` [Example 498, N-(3-chloro-5-(4-chlorophenoxy)phenyl)-6-methoxy-5-(methylsulfonamido)benzo[b]thiophene-2-carboxamide], the figure is 0.06 µM.
